What was measured:
HepG2 cells [1] = experiment: Cell proliferation assay (CCK-8), HepG2; type: cell-based, human; conditions: for Inhibitory Ratio (%) HepG2: 50 μM; for IC50: Homo sapiens, HepG2, mean ± SD, at least three independent experiments
Experimental: (§1) The human HCC cell lines QGY-7703, SMMC-7721 and HepG2 and the liver cell line QSG-7701 were supplied by the Cell Resource Center, Institute of Life Sciences, Chinese Academy of Medical Science. QGY-7703, SMMC-7721 and QSG-7701 cells were cultured in 1640 medium (Gibco), and HepG2 cells were cultured in DMEM medium (Gibco) at 37 °C in moist air supplemented with 5% CO2. All media were supplemented with 10% fetal bovine serum (FBS) and 100 Units/mL of penicillin/streptomycin.
(§2) The cell viability assay was performed as previously reported using a Cell Counting Kit-8 (CCK-8; Dojindo, Kumamoto, Japan)[33][34]. The relative cell viability was presented as % inhibition and calculated using the following formula: […]

QGY-7703 cells = experiment: Cell proliferation assay (CCK-8), QGY-7703; type: cell-based, human; conditions: for Inhibitory Ratio (%) QGY-7703: 50 μM; for IC50: Homo sapiens, QGY-7703, mean ± SD, at least three independent experiments
Experimental: as §1, §2

SMMC-7721 cells = experiment: Cell proliferation assay (CCK-8), SMMC-7721; type: cell-based, human; conditions: Homo sapiens, SMMC-7721; mean ± SD, at least three independent experiments
Experimental: as §1, §2

QSG-7701 hepatocytes = experiment: Cell proliferation assay (CCK-8), QSG-7701 hepatocytes; type: cell-based, human; conditions: Homo sapiens, QSG7701; nonmalignant hepatocytes; mean ± SD
Experimental: as §1, §2

advanced HCC = tested on: advanced HCC; set-up: method as in PMID 18650514; conditions: patients with advanced HCC; cited from earlier work
[2] = tested on: c-PARP, c-Cas3 and c-Cas9 in xenograft tumors; experiment: Histology, IHC and immunoblot of xenograft tumors; type: in vivo, BALB/c-nu nude mice; conditions: 5 mg/kg
Experimental: (§3) The total membrane and cytosolic proteins were extracted using a Membrane and Cytosol Protein Extraction Kit (Beyotime). Extracted proteins from cells or animal tissues were separated by SDS-PAGE and transferred to polyvinylidene difluoride (PVDF) membranes (Bio-Rad). The PVDF membranes were blocked with 5% nonfat milk and incubated with primary antibodies overnight, followed by incubation with a donkey anti-rabbit or anti-mouse secondary antibody (IRDye 800, LI-COR, Biosciences). The images were captured using the Odyssey Infrared Imaging System (LI-COR, Biosciences), according to the manufacturer's instructions. The intensity was quantitative with Quantity One software (Bio-Rad). To ensure equal protein loading, each membrane was stripped and reprobed with an anti-β-actin antibody. All experiments were repeated independently no less than three times.
To further confirm the antitumor activities of compound 7 and ISJ in vivo, histological analysis was performed on the hepatoma xenografts. Briefly, the samples were fixed in a 10% formalin solution, processed, embedded, sectioned and either H&E stained to reveal tumor tissue necrosis or IHC stained using antibodies against c-PARP, c-Cas3 or c-Cas9. The H&E and IHC images were obtained on a Leica DMI3000 B phase-contrast microscopy. The immunoreactive areas in the IHC images were quantified using ImagePro Plus 6.0 software (Media Cybernetics, Silver Spring, MD). The integrated optical density (IOD) values were represented as the mean ± SEM.

HepG2 cells [3] = experiment: Matrigel invasion assay; type: cell-based, human; conditions: Homo sapiens, HepG2, 24 h, read-out: inhibition of invasiveness compared to control
Experimental: (§4) Cell migration and invasion potencies were studied using wound healing and Matrigel invasion assays. The wound healing assay was performed by scratching the cell surface with a 10 μL pipette tip. Then, the cells were treated with compound 7 and ISJ (10 μM) and incubated for 24 h before being photographed under a microscope (DMI3000 B, Leica). Wound closure was evaluated using ImageJ software. Invasion through a Matrigel-coated filter was measured in transwell chambers (Corning Costa) as described previously, with minor modifications. Briefly, HepG2 Cells (2 × 10^5/well) were suspended in serum-free medium and added to the upper chamber of the Matrigel plate. FBS (10%) was used as the chemoattractant in the lower chamber. After incubation for 24 h, the non-invading cells were removed from the upper surface of the insert membrane with a cotton swab. The invading cells were fixed with methanol and stained with Giemsa (Sigma). Cells in five randomly selected fields were photographed, and the numbers of cells that crossed the membrane were counted.

PKCζ = experiment: Western blot of PKC isoform expression in cytosol and membrane; type: cell-based, human; conditions: HepG2, 24 h incubation
Experimental: To further determine whether compound 7 and ISJ represent potential candidates for selective PKC expression inhibitors against hepatoma, the expression of PKC isoforms in HepG2 cells was characterized by western blotting. After 24 h of incubation with GFX, GO, ISJ and compound 7 at the indicated concentrations, PKC proteins from the cytosol and membrane of HepG2 cells were evaluated. ISJ and compound 7 treatments reduced both the cytosol and cell membrane expression of PKCζ.
as §3

PKC = PKC activity assay (PepTag non-radioactive, HepG2 lysates); type: biochemical, human; conditions: 3 h
Experimental: The activity of PKC in HepG2 cells was assessed 3 h after the addition of compound 7 or ISJ by measuring the phosphorylation of a PKC-specific target peptide. Compared to the basal control (in the absence of any compound), PKC activity was inhibited by compound 7 and ISJ.
Figure 3 Effects of compound 7 and ISJ on PKC activity in HepG2 cells. The proteins from lysed HepG2 cells were prepared and measured for their ability to phosphorylate a PKC-specific peptide substrate (PLSRTLSVAAK) in a non-radioactive assay. (a) Lanes 1 and 2 show the negative (water only) and positive controls (with 20 ng purified PKC). Supernatants from HepG2 cells were subjected to the PKC activity assay in the absence (basal control, lane 3) or presence (lanes 4–7) of the compounds. Compound 7 (lanes 4 and 5) and ISJ (lanes 6 and 7) were added separately at 10 and 5 μM. (b) Quantification of (a); *P < 0.05 versus the basal control. Data are shown as the mean ± SD of three independent experiments.
The PKC activity assay was carried out as previously reported, according to the instructions of the PepTag non-radioactive PKC assay kit (Promega)[60]. The bands were photographed using the Syngene GBOX-iCHEMI-XR system, and the phosphorylated bands were cut out for quantification measurement at 570 nm.

HepG2 cells [4] = experiment: Wound healing (migration) assay; type: cell-based, human; conditions: 10 μM, 24 h
Experimental: as §4

HepG2 cells [5] = experiment: Apoptosis assay, Annexin V-FITC/PI flow cytometry; type: cell-based, human; conditions: 48 h
Experimental: To further explore the potential mechanisms of the antiproliferative effects induced by compound 7 and ISJ, Annexin V-FITC/PI double staining was performed to quantify cellular apoptosis by flow cytometry. HepG2 cells were cultured for 48 h in the absence or presence of compound 7 or ISJ at different concentrations (5 or 15 μM).
HepG2 cells were seeded in six-well plates (5 × 10^5 cells/mL) for 24 h and then treated with various amounts of the compounds or 1% DMSO (as control). After 48 h, the cells floating in the medium were collected, and the adherent cells were detached with 0.05% trypsin, washed twice with cold PBS, and centrifuged at 1000 rpm for 5 min at 4 °C. Subsequently, HepG2 cells were gently resuspended in the binding buffer. Thereafter, the cells were stained using the Annexin V-FITC/PI apoptosis detection kit (BD Biosciences, San Jose, CA, USA). After incubation at room temperature for 15 min in the dark, the apoptotic cells were immediately analyzed by flow cytometry (FACS Calibur).

[6] = Body weight in xenograft study; type: in vivo, BALB/c-nu nude mice; conditions: 5 mg/kg, tail vein, two weeks
Experimental: (§5) HepG2 cells were harvested and resuspended in PBS. A total of 5 × 10^6 cells were subcutaneously injected into the right flank. Tumor volume was calculated using the following formula: V = (L × W^2)/2, where L is the length and W is the width of the tumor nodules measured with vernier calipers. Once the volume of the tumors reached 75–100 mm^3, the mice were randomly divided into three groups (n = 5). The mice were treated every other day for two weeks with tail vein injections of either vehicle (5% ethanol and 2.5% polyethylene glycol in saline), compound 7, or ISJ (5 mg/kg in the vehicle). Body weights were measured before each drug injection. After the 15th day, the mice were euthanized, and the tumors were isolated, weighed and photographed.

HepG2 xenografts = experiment: Antitumor activity in vivo, HepG2 xenograft; set-up: species or system BALB/c-nu nude mice; conditions: 5 mg/kg, tail vein injection every other day for two weeks
Experimental: Four-week-old male BALB/c-nu nude mice (15–20 g) were obtained from the Shanghai SLAC Laboratory Animal Co., Ltd. (Shanghai, China). The animals were maintained under specific pathogen-free conditions with food and water supplied ad libitum in the Laboratory Animal Center of the Second Military Medical University. All animal experiments were carried out in accordance with the Guide for the Care and Use of Laboratory Animals of the National Institutes of Health and were approved by the Committee on the Ethics of Animal Experiments of the Second Military Medical University, China.
as §5

Row | SMILES | Inhibitory Ratio (%) HepG2 (HepG2 cells [1]) | Inhibitory Ratio (%) QGY-7703 (QGY-7703 cells) | further results
1 | COc1cc(OC)c2c(=O)c3ccc(OC)c(OC)c3oc2c1 [compound 5] | 22.61% | 20.81% | melting point: 138 to 140 °C
2 | CCOC(=O)/C=C/c1c(OC)cc(OC)c2c(=O)c3ccc(OC)c(OC)c3oc12 [compound 13] | 47.29% | 16.17% | 
3 | Cc1ccc(S(=O)(=O)Oc2cc3c(c4oc5c(O)c(O)ccc5c(=O)c24)C=CC(C)(C)O3)cc1 [compound 11] | 45.36% | 21.44% | 
4 | C#CC(C)(C)Oc1cc(OS(=O)(=O)c2ccc(C)cc2)c2c(=O)c3ccc4c(c3oc2c1)OC(c1ccccc1)(c1ccccc1)O4 [compound 9] | 12.46% | −3.98% | 
5 | O=c1[nH]cc(F)c(=O)[nH]1 [5-Fu, 5-Fluorouracil, reference compound] |  |  | IC50 (SMMC-7721 cells): 14.6 ± 0.36 µM; IC50 (HepG2 cells [1]): 12.48 ± 0.11 µM; IC50 (QGY-7703 cells): 15.66 ± 0.07 µM; IC50 (QSG-7701 hepatocytes): 0.6 ± 0.03 µM
6 | Cc1ccc(S(=O)(=O)Oc2cc3c(c4oc5c6c(ccc5c(=O)c24)OC(c2ccccc2)(c2ccccc2)O6)C=CC(C)(C)O3)cc1 [compound 10] | 18.01% | 0.66% | 
7 | CNC(=O)c1cc(Oc2ccc(NC(=O)Nc3ccc(Cl)c(C(F)(F)F)c3)cc2)ccn1 [sorafenib] |  |  | improvement of overall survival (advanced HCC): approximately three
8 | O=c1c2ccc3c(c2oc2cc(O)cc(O)c12)OC(c1ccccc1)(c1ccccc1)O3 [compound 7, 7,9-dihydroxy-2,2-diphenyl-6H-[1,3]dioxolane[4,5-c]xanthen-6h-one] | 90.99% | 79.93% | H&E staining of xenograft tumors [2]: significant tissue death; IHC c-PARP, c-Cas3 and c-Cas9 levels in tumors [2]: upregulated expression; immunoblot c-PARP, c-Cas3 and c-Cas9 levels in tumor tissue [2]: increased; inhibition at 10 µM (HepG2 cells [3]): 69%; PKCζ expression in cytosol and cell membrane (PKCζ): reduced; IC50 (SMMC-7721 cells): 6.35 ± 0.42 µM; IC50 (HepG2 cells [1]): 7.34 ± 0.09 µM; inhibition of PKC activity compared to the basal control (PKC; 5 μM): 40.9%; inhibition of PKC activity compared to the basal control (PKC; 10 μM): 54.1%; IC50 (QGY-7703 cells): 9.88 ± 0.18 µM; decrease of HepG2 cell migration compared to control (HepG2 cells [4]): 76.4%; number of apoptotic cells compared to the control group (HepG2 cells [5]; 5 μM): did not alter; percentage of apoptotic cells (HepG2 cells [5]; 15 μM): increased significantly; IC50 (QSG-7701 hepatocytes): 53.51 ± 0.13 µM; change in body weight compared to vehicle-treated controls [6]: no significant change; reduction of tumor weight compared to controls (HepG2 xenografts): 49.4%
9 | O=c1c2ccc(O)c(O)c2oc2cc(O)cc(O)c12 [compound 6] | 13.80% | −0.66% | 
10 | COc1ccc2c(=O)c3c(OC)cc(OC)c(I)c3oc2c1OC [compound 15] | 24.07% | −1.75% | 
11 | COc1ccc2c(=O)c3c(OC)cc(OC)c(C=O)c3oc2c1OC [compound 12] | 26.12% | 20.97% | 
12 | CCOC(=O)[C@@H](O)[C@H](O)c1c(OC)cc(OC)c2c(=O)c3ccc(OC)c(OC)c3oc12 [compound 14] | 25.40% | 13.15% | 
13 | COc1ccc2c(=O)c3c(OC)cc(OC)c(/C=C/C(C)(C)O)c3oc2c1OC [compound 16] | 15.95% | 13.26% | 
14 | C#CC(C)(C)Oc1cc(O)c2c(=O)c3ccc4c(c3oc2c1)OC(c1ccccc1)(c1ccccc1)O4 [compound 8] | 6.88% | −9.85% | 

Source: paper PMC4526861, “Inhibition of protein kinase C by isojacareubin suppresses hepatocellular carcinoma metastasis and induces apoptosis in vitro and in vivo” (Scientific Reports, 2015)
